{"source": "paper PMC13586173", "about": "“Synthetic cannabinoid receptor agonists inhibit the cardiac voltage-gated potassium channel hERG” (Acta Pharmacologica Sinica, 2026)", "key": {"human CB1 receptor": {"molecular_target": "T1, human CB1 receptor (Homo sapiens, UniProt P21554)", "T1 construct": "host or cells: CHO-K1 stably expressing CB1, apoaequorin and Gα16", "test": "AequoScreen intracellular calcium release assay, CHO-K1 cells stably expressing CB1", "format": "cell-based", "settings": "n ≥ 3 (JWH-030 n = 2)"}, "[1]": {"settings": "rats; cited from earlier work"}, "hERG (KV11.1)": {"molecular_target": "hERG (KV11.1) (Homo sapiens, UniProt Q12809)", "sequence (Q12809 whole entry)": "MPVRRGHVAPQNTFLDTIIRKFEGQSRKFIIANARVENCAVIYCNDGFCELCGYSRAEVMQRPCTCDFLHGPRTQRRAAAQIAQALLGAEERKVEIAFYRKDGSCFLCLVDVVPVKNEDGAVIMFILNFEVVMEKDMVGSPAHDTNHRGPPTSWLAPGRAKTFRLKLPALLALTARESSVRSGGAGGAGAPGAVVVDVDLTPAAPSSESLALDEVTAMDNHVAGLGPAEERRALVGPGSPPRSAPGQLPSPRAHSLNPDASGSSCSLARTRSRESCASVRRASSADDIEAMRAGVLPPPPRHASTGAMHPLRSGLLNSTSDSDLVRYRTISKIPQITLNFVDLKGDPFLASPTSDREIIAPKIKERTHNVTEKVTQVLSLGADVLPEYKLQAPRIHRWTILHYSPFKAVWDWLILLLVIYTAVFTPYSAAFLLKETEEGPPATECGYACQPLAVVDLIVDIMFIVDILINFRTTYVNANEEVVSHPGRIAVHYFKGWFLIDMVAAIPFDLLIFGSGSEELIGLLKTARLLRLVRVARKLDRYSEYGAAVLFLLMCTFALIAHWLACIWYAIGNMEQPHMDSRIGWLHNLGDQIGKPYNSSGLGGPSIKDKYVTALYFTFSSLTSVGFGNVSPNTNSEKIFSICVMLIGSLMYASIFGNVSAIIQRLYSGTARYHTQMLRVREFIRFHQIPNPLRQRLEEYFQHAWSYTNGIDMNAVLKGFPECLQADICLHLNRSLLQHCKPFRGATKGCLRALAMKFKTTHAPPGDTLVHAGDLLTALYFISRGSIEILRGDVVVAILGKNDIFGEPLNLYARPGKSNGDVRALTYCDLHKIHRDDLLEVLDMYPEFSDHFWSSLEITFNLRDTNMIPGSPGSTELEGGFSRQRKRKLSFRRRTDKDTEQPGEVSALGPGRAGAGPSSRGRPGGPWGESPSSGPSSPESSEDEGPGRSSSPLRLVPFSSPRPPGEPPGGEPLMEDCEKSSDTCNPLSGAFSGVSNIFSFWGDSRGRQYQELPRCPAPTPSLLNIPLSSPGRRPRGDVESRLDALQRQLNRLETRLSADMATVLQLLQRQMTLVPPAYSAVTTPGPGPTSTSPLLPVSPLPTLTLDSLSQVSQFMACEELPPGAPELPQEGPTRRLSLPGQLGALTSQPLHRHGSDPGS", "test": "Automated planar patch-clamp (APC, QPatch II 48), voltage-ladder protocol, CHO cells stably expressing human hERG", "text": "To assess the effect of a large set of SCRAs on hERG (see SI Table I and SI Fig. S1 for a list of the 36 included SCRAs and corresponding structures), we used the automated planar patch-clamp (APC) technique on mammalian Chinese hamster ovary (CHO) cells stably expressing human hERG. […] We employed a voltage-ladder protocol to obtain information on SCRA effects on the channel’s voltage dependence of activation (V50) and maximal conductance (Gmax) (both determined from Boltzmann fits of the instantaneous tail currents; see Methods for details).\nStably expressing cell lines “CHO-hERG DUO” (here referred to as hERG; gene: KCNH2) and “CHO-KVLQT1/mink” (here referred to as KV7.1/KCNE1; gene: KCNQ1/KCNE1), (B’SYS GmBH, Witterswil, Switzerland) were used to study whole-cell K^+ currents on a QPatch II 48 APC system (Sophion Bioscience A/S, Ballerup, Denmark). Cell culture and passaging were performed in accordance with standard operating procedures. Cells were harvested in serum-free medium with Detachin^TM (Genlantis, CA, USA) immediately prior to experiments. For MPC on transient cell lines, CHO-K1 CCL-61 cells (ATCC, Manassas, VA, USA) were cultured in Ham’s F-12 medium supplemented with 10% fetal bovine serum (FBS) and 100 U/mL penicillin–100 µg/mL streptomycin (Gibco, Thermo Fisher Scientific, Waltham, MA, USA). Transfection was carried out using JetOPTIMUS® reagent (Polyplus, Strasbourg, France) according to the manufacturer’s protocol. Briefly, 80,000 cells were seeded per well in a 12-well plate and transfected with 300 ng of pcDNA3-GFP plasmid, 700 ng of pcDNA3-hERG plasmid with either the wild-type or mutant channels (S624A, S649A, or Y652A), and […] of JetOPTIMUS. After 8 h, cells were detached and reseeded at a density of 30,000 cells per well onto several poly-D-lysine-coated glass coverslips placed in a 12-well plate. For the CB1 receptor activity assay, the AequoScreen® recombinant Chinese hamster ovary (CHO) K1 cell line, stably expressing the human CB1 receptor (ES-110-A), was used (Revvity, Sollentuna, Sweden).\nAutomated patch-clamp recordings were performed at 22 °C. Freshly harvested cell suspensions (2–3 million cells/mL) were prepared for experiments by the QPatch II 48 automated cell preparation unit. Cells were centrifuged for 150 s at 150 × g and washed twice with the extracellular recording solution. Cells were handled by the integrated pipetting robot and added to the 48 experiment sites on the planar patch-clamp consumable QPlate. Each experiment site contained an individual pair of recording electrodes and a silicon/glass biochip embedded in the flow channels. Single-cell patch recordings (n = 1 is defined as one single-cell patch) and population patch recordings (up to 10 cells per well, n = 1 is defined as one population patch) were performed for hERG and for KV7.1/KCNE1, respectively. Cells were applied, positioned and sealed to the patch holes by a mild suction protocol; whole-cell access was then achieved by a stronger suction pulse.\nThe intracellular solution contained (in mM): 100 KCl, 4.3 CaCl2, 1.4 MgCl2, 25/10 KOH/EGTA, 24 KF, 10 HEPES, and 4 Mg-ATP (hERG) or 4 Na-ATP (KV7.1/KCNE1). […] The compounds were pre-diluted in DMSO, and the final concentration of DMSO (0.3%) was equal in all recording solutions to control for vehicle effects. The compounds made no contact with plastics following dilution in extracellular solution.\nAn overview of experimental conditions is provided in SI Table VII, Square voltage pulses in a voltage ladder protocol were used to study current/voltage (I(V)) relationships. Each voltage protocol was first run three times in the presence of vehicle (extracellular solution supplemented with 0.3% DMSO), the 3rd serving as the baseline. Voltage protocols were repeated in the presence of 4 cumulatively rising concentrations of test compound, followed by application of vehicle for recovery."}, "hERG": {"test_system": "hERG", "settings": "cited from earlier work"}, "KV7.1/KCNE1": {"molecular_target": "KV7.1/KCNE1 (Homo sapiens, UniProt P51787)", "sequence (P51787 whole entry)": "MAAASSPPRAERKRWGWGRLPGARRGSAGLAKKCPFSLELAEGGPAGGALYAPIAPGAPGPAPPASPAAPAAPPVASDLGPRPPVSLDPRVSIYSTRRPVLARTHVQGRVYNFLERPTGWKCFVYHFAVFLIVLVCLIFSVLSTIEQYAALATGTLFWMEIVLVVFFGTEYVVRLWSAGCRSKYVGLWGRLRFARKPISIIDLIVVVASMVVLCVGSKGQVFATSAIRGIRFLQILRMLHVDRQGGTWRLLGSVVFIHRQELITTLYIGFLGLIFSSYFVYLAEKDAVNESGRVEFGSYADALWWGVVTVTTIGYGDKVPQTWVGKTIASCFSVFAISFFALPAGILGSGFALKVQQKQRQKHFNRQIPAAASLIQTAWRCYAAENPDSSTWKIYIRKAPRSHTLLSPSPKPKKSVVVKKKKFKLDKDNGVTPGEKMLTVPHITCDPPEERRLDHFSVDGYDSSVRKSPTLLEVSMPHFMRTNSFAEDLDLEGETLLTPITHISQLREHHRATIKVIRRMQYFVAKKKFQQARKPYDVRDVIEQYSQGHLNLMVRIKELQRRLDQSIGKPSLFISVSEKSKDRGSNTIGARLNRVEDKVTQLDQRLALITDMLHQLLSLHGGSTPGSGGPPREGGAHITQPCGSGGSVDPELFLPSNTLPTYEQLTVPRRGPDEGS", "test": "Automated patch-clamp (APC, population patch), CHO cells stably expressing human KV7.1/KCNE1", "format": "cell-based", "description": "Both hERG and KV7.1/KCNE1 contribute to cardiomyocyte repolarization (Fig. 1g). Inhibition of KV7.1/KCNE1 alone can be proarrhythmic. Moreover, under conditions with impaired hERG function, upregulation of KV7.1/KCNE1 has been proposed to partially compensate for the loss of hERG [38, 39]. […] To assess if SCRAs also affect KV7.1/KCNE1, we used mammalian CHO cells stably expressing human KV7.1/KCNE1. […] At 10 µM, 7 of the SCRAs caused a significant positive shift in V50 (Fig. 5e), with the largest shift induced by MDMB-[…] (ΔV50 = +10.3 ± 1.6 mV).\nAutomated patch-clamp recordings were performed at 22 °C.\nFor the KV7.1/KCNE1 voltage ladder protocol (SI Table VII) the solutions were present for 60 s before recording started. KV7.1/KCNE1 cells were kept at a holding voltage of −90 mV, with brief hyperpolarizing steps to −100 mV for 540 ms (to calculate ohmic leakage). […] The time between compound application and the first voltage protocol was 60 s. Time between sweeps was 15 s. The voltage ladder protocol was executed every 220 s.\nFor Gmax (rel.), N was set to –1. For ΔV50, N was set to 1."}, "[2]": {"settings": "experimentally observed effect of 10 µM, used in ORd simulation"}}}
{"compound": "CCCCCn1ccc(C(=O)c2cccc3ccccc23)c1", "note": "[JWH-030]", "values": [{"measurement": "EC50", "setting": "human CB1 receptor; CB1 receptor Potency EC50, normalized to median EC50 of JWH-018", "value": 0.291, "unit": "µM"}, {"measurement": "CB1 receptor Efficacy Emax", "setting": "human CB1 receptor; normalized to maximum of JWH-018", "value": 76.5, "unit": "% JWH-018"}, {"measurement": "QT interval (in words)", "setting": "[1]", "value": "prolongs the QT interval in rats"}, {"measurement": "IC50", "setting": "hERG (KV11.1)", "value": 23.1, "unit": "µM"}, {"measurement": "hERG channel Efficacy (max reduction in Gmax) Gmin", "setting": "hERG (KV11.1); best fit, 1 = no reduction of Gmax, 0 = complete reduction, APC, 22 °C", "value": 0.00}, {"measurement": "remaining IKr (hERG Gmax)", "setting": "hERG (KV11.1); [2]", "value": 74, "unit": "%"}, {"measurement": "hERG inhibition (in words)", "setting": "hERG", "value": "inhibits the voltage-gated potassium channel hERG"}, {"measurement": "IC50", "setting": "hERG; read-out: in vitro hERG IC50, test pulse 1 s", "value": 88.4, "unit": "µM"}, {"measurement": "IC50", "setting": "KV7.1/KCNE1", "value": 12.2, "unit": "µM"}, {"measurement": "effect on KV7.1/KCNE1 (in words)", "setting": "KV7.1/KCNE1; APC", "value": "largest reduction in Gmax"}, {"measurement": "KV7.1/KCNE1 channel Efficacy (max reduction in Gmax) Gmin", "setting": "KV7.1/KCNE1; best fit, 1 = no reduction of Gmax, 0 = complete reduction", "value": 0}, {"measurement": "remaining IKs (KV7.1/KCNE1 Gmax)", "setting": "KV7.1/KCNE1; [2]", "value": 49, "unit": "%"}]}
